The IC50 is the concentration needed to halve the response being measured.

We go through six compounds from patent US10604739B2, “Cardiomyocyte production” (Cellular Dynamics International, Inc., priority 2009, dated 2020).

Where “and” joins values, the source holds several entries; their conditions need not be identical. Equal entries are not always repeated.

Data set [1] relates to pluripotent stem cell-derived cardiomyocytes. The conditions noted are these: cited from earlier work.
A further data set deals with ROCK2. Particulars: ROCK1/ROCK2; cited from earlier work.
The test system of data set [2] is iPS6.1 cells. Briefly: iPS6.1 Four Corners experiment, FGF x HGF cardiac induction. The format is cell-based, human. The conditions noted are these: iPS6.1 cells, 25 ng/mL FGF and/or 50 ng/mL HGF, single T25 flask, day 14; listed as FGF only. How it is done: (§1) Aggregate formation and cardiac induction procedures of those iPS cells at different initial densities were performed essentially the same as described in Examples 4 except different concentrations of human HGF (hHGF) and FGF were applied to Aggregate Formation Medium, Aggregate Transition Medium and Cardiac Induction Medium.
Concurrent with the second iPS growth factor titration, a simple experiment (Table 19) was set up with iPS6.1 cells to test the 2×2 matrix of 0 and 25 ng/mL FGF and 0 and 50 ng/mL HGF. The positive concentrations of FGF and HGF were chosen based on the current best practices for iPS6.1 cells at the time and were identical to the conditions used for cardiac induction of H1 cells in both the plated and suspension processes. This experiment confirmed previous work showing the necessity of FGF for the process.

In data set [3] the test system is iPS6.1 cells. Briefly: iPS6.1 Growth Factor Titration #1. It counts as cell-based, human. Particulars: hbFGF 0 or 25 ng/mL, FIGS. 29A-B. How it is done:
as §1
Conditions without FGF had virtually no surviving aggregates and no measurable cardiomyocytes (FIGS. 29A-B). On the other hand, all conditions with FGF yielded cardiomyocytes independent of HGF concentration (FIGS. 29A-B).

A further data set deals with H9-TGZ cells. Briefly: H9-TGZ Growth Factor Titration #2. The format is cell-based, human. The conditions noted are these: FIGS. 31A-C. How it is done: as §1
While the iPS6.1 optimization was underway, a separate series of experiments was conducted to optimize the growth factor concentrations for the H9-TGZ cells. […] Therefore, the FGF range tested was higher than that in the recent iPS6.1 experiments. This experiment confirmed that optimum cardiomyocyte production requires 100-150 ng/mL FGF with the H9-TGZ cells (FIGS. 31A-C).

Data set [4] relates to iPS6.1 cells. Briefly: iPS6.1 Growth Factor Titration #2. The format is cell-based, human. The conditions noted are these: hbFGF 3-100 ng/mL, FIGS. 30A-B. The procedure:
as §1
Based on the results of the first experiment (see FIGS. 29A-B), the second iPS6.1 growth factor titration focused on the lower dose range for both FGF and HGF (FIGS. 30A-B). […] However, it is important to note that in no case did the omission of HGF lead to the failure of a condition which was otherwise successful in the presence of HGF.

A further data set concerns iPS 6.1 and iPS 6.1 MRB. Briefly: iPS cell passaging with NaCitrate in Double Stacks. The format is cell-based, human. The procedure:
Dissociated iPS cells were rinsed with D-PBS (Dulbecco's Phosphate Buffered Saline) free of Ca^2+ and Mg^2+ and the media were aspirated. The cells were then incubated with appropriate amount (i.e., 1 mL for one well of 6-well plate, 15 mL for T-150 flask, etc) of 15 mM NaCitrate, 165 mM KCl, pH 7.3, OSM 340, at room temperature for 6-15 minutes. After incubation, the NaCitrate solution were aspirated with the cells still loosely attached. The cells were resuspended in appropriate amount of TeSR with 1 μM H1152 and distributed to Matrigel™ surfaced vessel.
For scale up production of the starting material from T150 flasks to Corning Double Stacks, and for assessment of the ability of iPS cells to be passaged as single cells/small clumps with NaCitrate, iPS 6.1 and iPS 6.1 MRB were passaged with 15 mM NaCitrate as single cells or small cell clumps into double stacks while maintaining T150 control flasks split with dispase (see FIG. 1 for experimental design). […] Cells were assessed at passage 4 and passage 7 with cardiogenesis, pluripotency panel, and karyotype. […] Aggregate images and cTnT staining for cardiomyocytes were analyzed on day 14 after splitting (FIGS. 4A-D, FIGS. 5A-C, FIGS. 6A-B, FIGS. 7A-C). Pluripotency profiles of iPS cells after passaging with NaCitrate and dispase was compared by flow cytometry using five pluripotency markers (FIGS. 8A-C). It appears safe to passage iPS cells at least four times with the NaCitrate method.
Cardiogenesis was also analyzed for those iPS cells after passaging with NaCitrate and data were compiled in FIG. 9. […] The last three “spinner” samples come from Double Stack iPS 6.1 MRB cells that were left over from various Double stack harvests. An average yield of 110e6 cells/L was obtained in 1 L spinner with cells passaged in double stacks with NaCitrate.

With `COc1ccc([C@@H]2Sc3ccccc3N(CCN(C)C)C(=O)[C@@H]2OC(C)=O)cc1` [diltiazem], the Contractile activity result in data set [1] is listed as “inhibits contractile activity in a dose-dependent manner”.
As to `C[C@@H](N)[C@H]1CC[C@H](C(=O)Nc2ccncc2)CC1` [Y-27632], the IC50 with ROCK2 was […].
`CC(C)NCC(O)c1ccc(O)c(O)c1` (centres unmarked) [isoprenaline]: the Chronotropic effect result in data set [1] is “positive chronotropic effect”.
For the compound “FGF: human recombinant basic FGF, R&D systems”, the “% cTNT+” value in the data set on iPS6.1 cells [2] is 11.2% and 11.9% and 13.1%. Also, the “Requirement for CM differentiation process” value in the data set on iPS6.1 cells [3] is reported as “required for the CM differentiation process to be successful”. Moreover, in the data set on H9-TGZ cells, the “FGF concentration required for optimum cardiomyocyte production” value was 100 to 150 ng/mL. For the same compound, in the data set on iPS6.1 cells [4], the “FGF dose response (aggregate survival, cardiogenesis)” value was “too little FGF led to poor aggregate survival and high doses had survival but lacked cardiogenesis”.
As to `O=C([O-])CC(O)(CC(=O)[O-])C(=O)[O-].[Na+].[Na+].[Na+]` [NaCitrate], in the data set with iPS 6.1 and iPS 6.1 MRB (1 L spinner, cells passaged in double stacks with NaCitrate), the “Average yield of cardiomyocytes” value is on record as 110e6 cells/L. Moreover, the Doubling time in the data set with iPS 6.1 and iPS 6.1 MRB (Double Stack NaCitrate conditions, 15 mM NaCitrate) is ~30 h. Moreover, in the data set on iPS 6.1 and iPS 6.1 MRB (cells split 4 times with NaCitrate), the Karyotype result was “maintained a normal karyotype”.
On to `CNC[C@H](O)c1cccc(O)c1` [phenylephrine], for which the Chronotropic effect entry in data set [1] is “positive chronotropic effect”.
